Tests used:
Assay type in all cases: cell-based
BaF3 TELJAK3 cells = target: T1, BaF3 TELJAK3 cells (Homo sapiens, UniProt P52333); assay: Cellular screening, BaF3 TEL:JAK3 cells, Alamar Blue; settings: 40 hr, read-out: BafT_J3 IC50_nM
T1 construct: fused on or other part: TEL (ETV6) N-terminal part, coding nucleotides 1-487, serves as the oligomerising partner; It is fused through a Sal I site to the JAK3 kinase domain and expressed from pTRE2 in BaF3 cells bearing pTET-off; P41212 (Transcription factor ETV6)
T1 sequence (P52333 1-1124): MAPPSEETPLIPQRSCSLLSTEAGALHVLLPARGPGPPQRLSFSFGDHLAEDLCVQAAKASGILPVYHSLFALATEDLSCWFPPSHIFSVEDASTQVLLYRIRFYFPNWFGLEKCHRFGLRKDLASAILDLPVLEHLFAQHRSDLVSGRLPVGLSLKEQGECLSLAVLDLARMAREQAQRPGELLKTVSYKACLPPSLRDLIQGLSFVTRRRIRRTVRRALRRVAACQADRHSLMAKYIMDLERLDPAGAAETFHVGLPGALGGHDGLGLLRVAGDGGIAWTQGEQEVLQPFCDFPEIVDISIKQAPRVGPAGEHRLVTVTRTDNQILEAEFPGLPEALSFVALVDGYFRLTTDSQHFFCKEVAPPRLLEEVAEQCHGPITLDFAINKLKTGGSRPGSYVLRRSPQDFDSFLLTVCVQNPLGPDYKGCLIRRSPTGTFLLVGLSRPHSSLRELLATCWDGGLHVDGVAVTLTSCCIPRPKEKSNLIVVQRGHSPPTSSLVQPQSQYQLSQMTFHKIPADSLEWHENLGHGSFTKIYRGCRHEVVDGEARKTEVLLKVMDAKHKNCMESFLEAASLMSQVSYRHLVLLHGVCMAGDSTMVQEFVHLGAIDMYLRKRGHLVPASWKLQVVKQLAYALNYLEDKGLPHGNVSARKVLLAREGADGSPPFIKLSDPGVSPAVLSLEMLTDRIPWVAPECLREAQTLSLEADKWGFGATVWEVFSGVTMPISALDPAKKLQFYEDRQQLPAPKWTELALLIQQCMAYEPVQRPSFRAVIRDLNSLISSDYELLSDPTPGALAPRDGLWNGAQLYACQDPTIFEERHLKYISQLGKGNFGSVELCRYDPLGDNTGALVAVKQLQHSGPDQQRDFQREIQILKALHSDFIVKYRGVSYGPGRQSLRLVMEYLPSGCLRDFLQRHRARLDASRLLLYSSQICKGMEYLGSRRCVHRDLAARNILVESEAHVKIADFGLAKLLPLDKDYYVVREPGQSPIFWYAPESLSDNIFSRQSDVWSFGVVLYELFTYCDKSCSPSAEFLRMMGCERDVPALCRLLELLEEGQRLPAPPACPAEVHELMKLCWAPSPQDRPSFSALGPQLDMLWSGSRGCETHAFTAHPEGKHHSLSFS
Summary of the method: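 Alamar Blue signal at 544 nm, developed for 4–6 h, measured viability after 40 h of compound treatment at 37 °C, 5% CO2. Cells were growth-factor-independent BaF3 lines transfected with a TEL/JAK3 kinase-domain fusion under tet-off control. They were cultured in DMEM, 10% Tet-approved FBS, lacking WEHI 3B conditioned medium.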

BaF3 wild-type cells = assay: Cellular screening, BaF3 wild-type cells, Alamar Blue; settings: Mus musculus, 40 hr, read-out: BAF3wt IC50_nM
Summary of the method: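 Compounds, screened from dilution plates at 20 μM, were added as 10× final stocks to cells grown in DMEM/10% FCS/10% WEHI 3B conditioned medium. Cells were seeded at 1.1× final (50,000–200,000 cells/mL) and incubated 40 hr at 37° C, 5% CO2. Viability was read at 544 nm after a further 4–6 hours with Alamar Blue.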

CTLL2 = assay: Cellular screening, CTLL2 cells, Alamar Blue; settings: Mus musculus, CTLL-2, read-out: CTLL2 IC50_nM
Summary of the method: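 Viability is read with Alamar Blue at 544 nm, the dye added for the final 4-6 hours. Compounds were incubated for 40 hr with CTLL2 cells taken from late-log-phase culture, at 37° C in 5% CO2.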

| SMILES | GI50 (BaF3 TELJAK3 cells) [µM] | IC50 (BaF3 wild-type cells) [µM] | IC50 (CTLL2) [µM] |
| --- | --- | --- | --- |
| Cc1cnc(Nc2ccc(N3CCOCC3)cc2)nc1Sc1ccc(CO)cc1 [Compound 220, (4-(5-methyl-2-(4-morpholinophenylao)pyrimidin-4-ylthio)phenyl)methanol] | < 5 | < 5 | < 1 |
| Cc1cnc(Nc2ccc(N3CCOCC3)cc2)nc1Sc1ccc(N2C(=O)COCC2=O)cc1 [Compound 190, 4-(4-(5-methyl-2-(4-morpholinophenylao)pyrimidin-4-ylthio)phenyl)morpholine-3,5-dione] | > 20 | > 20 | > 20 |
| Cc1cnc(Nc2ccc(N3CCOCC3)cc2)nc1Sc1ccc(C=O)cc1 [Compound 219, 4-(5-methyl-2-(4-morpholinophenylao)pyrimidin-4-ylthio)benzaldehyde] | < 5 | < 5 | > 20 |
| N#Cc1c(N)ncn1Cc1cccc(Sc2ccnc(Nc3ccc(N4CCOCC4)cc3)n2)c1 [Compound 199, 4-ao-1-(3-(2-(4-morpholinophenylao)pyrimidin-4-ylthio)benzyl)-1H-imiazole-5-carbonitrile] | < 20 | < 20 | < 20 |
| Cc1cnc(Nc2ccc(N3CCOCC3)cc2)nc1Sc1ccc(NC2CCOC2=O)cc1 (centres unmarked) [Compound 228, 3-(4-(5-methyl-2-(4-morpholinophenylao)pyrimidin-4-ylthio)phenylao)dihydrofuran-2(3H)-one] | > 20 | > 20 | > 20 |
| Cc1cnc(Nc2ccc(O)cc2)nc1Sc1ccc(N)cc1 [Compound 191, 4-(4-(4-aophenylthio)-5-methylpyrimidin-2-ylao)phenol] | < 5 | < 5 | < 5 |
| C=CC(=O)Nc1cccc(Nc2nccc(SC)n2)c1 [Compound 7, N-(3-(4-(methylthio)pyrimidin-2-ylao)phenyl)acrylamide] | < 5 | < 20 | < 5 |
| Cc1cnc(Nc2ccc(N3CCOCC3)cc2)nc1Sc1cccc(CO)c1 [Compound 212, (3-(5-methyl-2-(4-morpholinophenylao)pyrimidin-4-ylthio)phenyl)methanol] | > 20 | > 20 | > 20 |
| Cc1cnc(Nc2ccc(N3CCOCC3)cc2)nc1Sc1ccc(C(C#N)N2CCN(C)CC2)cc1 (centres unmarked) [Compound 225, 2-(4-(5-methyl-2-(4-morpholinophenylao)pyrimidin-4-ylthio)phenyl)-2-(4-methylpiperazin-1-yl)acetonitrile] | < 5 | < 5 | < 5 |
| c1cc(Sc2ccc(Cn3cncn3)cc2)nc(Nc2ccc(N3CCOCC3)cc2)n1 [Compound 204, 4-(4-((1H-1,2,4-triazol-1-yl)methyl)phenylthio)-N-(4-morpholinophenyl)pyrimidin-2-ae] | < 20 | < 20 | < 20 |
| Cc1cnc(Nc2cccc(S)c2)nc1Sc1ccc(NC(=O)CCl)cc1 [Compound 195, 2-chloro-N-(4-(2-(3-mercaptophenylao)-5-methylpyrimidin-4-ylthio)phenyl)acetamide] | < 20 | > 20 | > 20 |
| CON(C)C(=O)c1ccc(Sc2nc(Nc3ccc(N4CCOCC4)cc3)ncc2C)cc1 [Compound 218, N-methoxy-N-methyl-4-(5-methyl-2-(4-morpholinophenylao)pyrimidin-4-ylthio)benzamide] | < 20 | > 20 | > 20 |
| N#Cc1c(N)ncn1Cc1ccc(Sc2ccnc(Nc3ccc(N4CCOCC4)cc3)n2)cc1 [Compound 203, 4-ao-1-(4-(2-(4-morpholinophenylao)pyrimidin-4-ylthio)benzyl)-1H-imidazole-5-carbonitrile] | < 1 | < 1 | < 1 |
| Cc1cnc(Nc2ccc(N3CCOCC3)cc2)nc1Sc1ccc(C(=O)N2CCCC2)cc1 [Compound 224, (4-(5-methyl-2-(4-morpholinophenylao)pyrimidin-4-ylthio)phenyl)(pyrrolidin-1-yl)methanone] | > 20 | < 20 | > 20 |
| Cc1cnc(Nc2ccc(N3CCOCC3)cc2)nc1Sc1ccc(NC(=O)CO)cc1 [Compound 229, 2-hydroxy-N-(4-(5-methyl-2-(4-morpholinophenylao)pyrimidin-4-ylthio)phenyl)acetamide] | < 20 | < 20 | < 20 |
| NC(=O)c1ccc(Sc2ccnc(Nc3ccc(N4CCOCC4)cc3)n2)cc1 [Compound 207, 4-(2-(4-morpholinophenylao)pyrimidin-4-ylthio)benzamide] | > 20 | – | – |
| N#Cc1ncn(Cc2ccc(Sc3ccnc(Nc4ccc(N5CCOCC5)cc4)n3)cc2)c1N [Compound 202, 5-ao-1-(4-(2-(4-morpholinophenylao)pyrimidin-4-ylthio)benzyl)-1H-imidazole-4-carbonitrile] | < 5 | < 20 | < 5 |
| N#CCc1ccc(Sc2ccnc(Nc3ccc(N4CCOCC4)cc3)n2)cc1 [Compound 210, 2-(4-(2-(4-morpholinophenylao)pyrimidin-4-ylthio)phenyl)acetonitrile] | > 20 | > 20 | > 20 |
| Cc1cnc(Nc2ccc(N3CCOCC3)cc2)nc1Sc1ccc(N2CCSCC2=O)cc1 [Compound 197, 4-(4-(5-methyl-2-(4-morpholinophenylao)pyrimidin-4-ylthio)phenyl)thiomorpholin-3-one] | > 20 | > 20 | > 20 |
| Cc1cnc(Nc2cccc(NS(C)(=O)=O)c2)nc1Sc1ccc(CO)cc1 [Compound 226, N-(3-(4-(4-(hydroxymethyl)phenylthio)-5-methylpyrimidin-2-ylao)phenyl)methanesulfonamide] | < 5 | – | – |
| Cc1cnc(Nc2ccc(N3CCOCC3)cc2)nc1Sc1ccc(CC#N)cc1 [Compound 222, 2-(4-(5-methyl-2-(4-morpholinophenylao)pyrimidin-4-ylthio)phenyl)acetonitrile] | > 20 | > 20 | > 20 |
| Cc1cnc(Nc2ccc(N3CCOCC3)cc2)nc1Sc1ccc(C(C#N)N2CCOCC2)cc1 (centres unmarked) [Compound 223, 2-(4-(5-methyl-2-(4-morpholinophenylao)pyrimidin-4-ylthio)phenyl)-2-morpholinoacetonitrile] | < 20 | < 5 | < 5 |

— patent US8846704B2, “Thiopyrimidine-based compounds and uses thereof” (YM Biosciences Austraila Pty Ltd, priority 2007, dated 2014)
